# Experimental data taken from patent US20100021895A1, “Vectors for Inducing Homozygous Mutations and Methods of Using Same” (priority 2006, published 2010).
# System: mouse embryonic stem cell clones, each containing a neomycin resistance gene (Neo) inserted by the GTR1.3 gene trap retrovirus
# Test: Carcinogen-induced LOH: frequency of colony formation in 2.0 mg/ml G418
# Format: cell-based
# Details: for fold increase of frequency of colony formation: 2 mg/ml G418 0.5 mM MNU
# Method: Carcinogen-induced LOH was measured in a panel of 53 mouse embryonic stem cell clones, each containing a neomycin resistance gene (Neo) inserted into a different cellular gene (FIG. 9) by the GTR1.3 gene trap retrovirus. Gene entrapment by GTR1.3 involves selection for inserted Neo sequences that can splice to the 3′ ends of cellular genes (Lin et al.,). The disrupted genes were identified by sequencing Neo-gene fusion transcripts and were localized on the mouse genome. Previous studies have shown that cells homozygous for GTR1.3-induced mutations can be selected from heterozygous cells simply by selecting for resistance to higher concentrations of G418, a method first shown to select for homozygous mutations induced by gene targeting (15). Mitotic recombination appears to be the preferred mechanism of spontaneous LOH involving Neo genes inserted in ES cells (17) and LOH involving other genes and cell types in vivo (12, 13). LOH doubles the number of Neo genes per cell and thus allows moderately resistant cells to acquire resistance to higher concentrations of G418. The frequencies of spontaneous LOH measured at the 53 different sites ranged from 1.3×10^−5 to 1.2×10^−4 (Table 3), similar to those reported for other inserted neomycin resistance genes (15, 17) in ES cells and for loci such as TK and APRT in other cell types (12, 13).
# A variety of chemical agents were tested for their ability to enhance the frequencies at which mutant cells survive in 2.0 mg/ml G418. Methyl-nitrosurea (MNU) is an alkylating agent that produces a variety of mono-methylated DNA adducts, hydroxyurea (HU) stalls DNA replication complexes, doxorubicin interferes with DNA synthesis, methothrexate is a competitive inhibitor of dihydrofolate reductase but is not genotoxic, diepoxybutane and mitomycin C induce inter-strand DNA crosslinks, UV irradiation causes intra- and inter-strand pyrimidine dimmers, and ethidium bromide intercalates between DNA strands to damage DNA (For additional information about these agents see http://toxnet.nlm.nih.gov and http://lisntweb.swan.ac.uk/cmgt/index.htm). […] The fold-increase for MNU and HU ranged from 39-123 and 18-68, respectively (Table 3). The optimal concentrations of each agent to stimulate colony formation with minimal toxicity (<5% loss of cell viability) were determined in advance (FIG. 13). […] Each of these agents was tested two or more times on at least 25 entrapment lines.
# Serially diluted cells were plated onto 150 mm plates containing drug-free media and allowed to attach overnight. Unattached cells were removed and media containing the indicated concentrations of methyl-nitrosourea, hydroxyurea, ethidium bromide, doxorubicin, methotrexate, diepoxybutane, or mitomycin C was put onto cells for 4 hours (or cells were exposed to ultraviolet light in the absence of media and allowed to recover in drug-free media for 4 hours). Cells were then rinsed twice with drug-free media and selection media containing 0.0, 0.3, or 2.0 mg/ml G418 was put onto cells. After 12 days of selection, the number of colonies surviving was counted and the frequency of colony formation was determined by dividing the number of colonies obtained from 2.0 mg/ml G418 selection to that obtained from parallel experiments with 0.3 mg/ml G418 selection. TK gene loss was assessed following selection in media containing 2 μg/ml gancyclovir.
# Table 3. The frequency of colony formation in high concentrations of G418. The frequency of colony formation is listed for all 53 clones examined. Frequency was determined by dividing the number of colonies surviving 2.0 mg/ml G418 selection to the number surviving parallel experiments with 0.3 mg/ml G418 selection, and is the average of at least 3 independent experiments for each clone. Standard deviations, which ranged from 5 to 70% of the mean values, have been omitted for clarity. […]
compound,measurement,setting,value
"CN(N=O)C(N)=O [MNU, methyl-nitrosourea]",number of colonies surviving in high G418,0.5 mM MNU or 0.25 mM HU (FIG. 10),dramatically increased
same,"fold-increase of colonies surviving in high G418, range over clones","0.5 mM MNU, Table 3 clones",39-123 fold
same,fold increase of frequency of colony formation,clone b2p1-a5 (12C3),(+61-fold)
same,fold increase of frequency of colony formation,clone b2p1-a9 (2H1),(+53-fold)
same,fold increase of frequency of colony formation,clone b2p1-b4 (9E1),(+53-fold)
same,fold increase of frequency of colony formation,clone b2p1-b9 (4B1),(+59-fold)
same,fold increase of frequency of colony formation,clone b2p1-c6 (19A),(+39-fold)
same,fold increase of frequency of colony formation,clone b2p1-d3 (19C1),(+41-fold)
same,fold increase of frequency of colony formation,clone b2p1-d8 (4D2.3),(+52-fold)
same,fold increase of frequency of colony formation,clone b2p1-d9 (7E3),(+75-fold)
same,fold increase of frequency of colony formation,clone b2p1-d10 (9A1),(+76-fold)
same,fold increase of frequency of colony formation,clone b2p1-e3 (4D2.3),(+54-fold)
same,fold increase of frequency of colony formation,clone b2p1-e10 (19C1),(+54-fold)
same,fold increase of frequency of colony formation,clone b2p1-f3 (17E1.3),(+51-fold)
same,fold increase of frequency of colony formation,clone b2p1-f10 (3F2.1),(+91-fold)
same,fold increase of frequency of colony formation,clone b2p1-f12 (1H5),(+77-fold)
same,fold increase of frequency of colony formation,clone b2p1-h1 (7A2),(+63-fold)
same,fold increase of frequency of colony formation,clone b2p1-h5 (1H5),(+75-fold)
same,fold increase of frequency of colony formation,clone b2p1-h8 (6A3.3),(+68-fold)
same,fold increase of frequency of colony formation,clone b3p1-h1 (18E2),(+55-fold)
same,fold increase of frequency of colony formation,clone b3p3-a4 (4A5),(+78-fold)
same,fold increase of frequency of colony formation,clone b3p3-a9 (4A5),(+49-fold)
same,fold increase of frequency of colony formation,clone b3p3-b6 (3F1),(+60-fold)
same,fold increase of frequency of colony formation,clone b3p3-c8 (14A3),(+73-fold)
same,fold increase of frequency of colony formation,clone b3p3-c12 (5G2),(+29-fold)
same,fold increase of frequency of colony formation,clone b3p3-d4 (1C3),(+43-fold)
same,fold increase of frequency of colony formation,clone b3p3-d8 (1C2),(+123-fold)
same,fold increase of frequency of colony formation,clone b3p3-d9 (4E2),(+89-fold)
same,fold increase of frequency of colony formation,clone b3p3-g6 (10C2),(+59-fold)
same,fold increase of frequency of colony formation,clone b3p3-g10 (4E1),(+58-fold)
same,fold increase of frequency of colony formation,clone b3p3-h2 (19C1),(+73-fold)
same,fold increase of frequency of colony formation,clone b3p3-h4 (5E2),(+70-fold)
same,fold increase of frequency of colony formation,clone b3p3-h8 (19A),(+105-fold)
same,fold increase of frequency of colony formation,clone b3p4-a1 (4A4),(+69-fold)
same,fold increase of frequency of colony formation,clone b3p4-a5 (3B),(+47-fold)
same,fold increase of frequency of colony formation,clone b3p4-b1 (3A2),(+45-fold)
same,fold increase of frequency of colony formation,clone b3p4-b2 (11B1.3),(+54-fold)
same,fold increase of frequency of colony formation,clone b3p4-b8 (4C6),(+63-fold)
same,fold increase of frequency of colony formation,clone b3p4-b12 (3A1),(+52-fold)
same,fold increase of frequency of colony formation,clone b3p4-c1 (17B3),(+69-fold)
same,fold increase of frequency of colony formation,clone b3p4-c2 (8C3),(+76-fold)
same,fold increase of frequency of colony formation,clone b3p4-c9 (15F2),(+39-fold)
same,fold increase of frequency of colony formation,clone b3p4-c12 (17E2),(+74-fold)
same,fold increase of frequency of colony formation,clone b3p4-d10 (14E5),(+88-fold)
same,fold increase of frequency of colony formation,clone b3p4-d12 (1C3),(+82-fold)
same,fold increase of frequency of colony formation,clone b3p4-e1 (2G3),(+65-fold)
same,fold increase of frequency of colony formation,clone b3p4-e3 (15D3),(+73-fold)
same,fold increase of frequency of colony formation,clone b3p4-e7 (12C1),(+43-fold)
same,fold increase of frequency of colony formation,clone b3p4-f2 (4E1),(+55-fold)
same,fold increase of frequency of colony formation,clone b3p4-f6 (7E3),(+48-fold)
same,fold increase of frequency of colony formation,clone b3p4-f10 (8A4),(+81-fold)
same,fold increase of frequency of colony formation,clone b3p4-g3 (1C3),(+81-fold)
same,fold increase of frequency of colony formation,clone b3p4-g8 (10C1),(+75-fold)
same,fold increase of frequency of colony formation,clone b3p4-g9 (2C2),(+65-fold)
same,fold increase of frequency of colony formation,clone b3p4-h11 (8A1.1),(+65-fold)
same,survival of mutant ES cells in media containing 2.0 mg/ml G418,"ES cells heterozygous for Xrcc5 entrapment mutation, 4 hours with 0.5 mM methyl-nitrosourea, 0.25 mM hydroxyurea or 100 ng/ml diepoxybutane",enhances the survival
same,overall extent of LOH induced,single exposure to non-toxic levels,~1 % of the genome
